Assay results published in the NIST ThermoML archive (doi:10.1016/j.jct.2018.01.025).
“And” between values parts separate entries of the source, which are not always exact repeats. Equal values may be shown once.

Details: Liquid; for mass density: Vibrating tube method

CCCC[n+]1cccc(C)c1.O=S(=O)([N-]S(=O)(=O)C(F)(F)F)C(F)(F)F
Details | viscosity
278.15 K, 101.33 kPa, Concentric cylinders viscometry | 201 mPa·s
283.15 K, 101.33 kPa, Concentric cylinders viscometry | 146.3 mPa·s
288.13 K, 101.33 kPa, Vibrating wire viscometry | 107.09 mPa·s
288.15 K, 101.33 kPa, Concentric cylinders viscometry | 109.5 mPa·s
292.95 K, 101.33 kPa, Vibrating wire viscometry | 83.24 mPa·s
293.15 K, 101.33 kPa, Concentric cylinders viscometry | 84.1 mPa·s
296.3 K, 101.33 kPa, Vibrating wire viscometry | 71.15 mPa·s
298.15 K, 101.33 kPa, Concentric cylinders viscometry | 65.6 mPa·s
298.25 K, 101.33 kPa, Vibrating wire viscometry | 65 mPa·s and 64.91 mPa·s
300.55 K, 101.33 kPa, Vibrating wire viscometry | 58.21 mPa·s
302.98 K, 101.33 kPa, Vibrating wire viscometry | 52.92 mPa·s
303.15 K, 101.33 kPa, Concentric cylinders viscometry | 52.31 mPa·s
303.15 K, 10000 kPa, Falling or rolling sphere viscometry | 58.6 mPa·s
303.15 K, 15000 kPa, Falling or rolling sphere viscometry | 62.3 mPa·s
303.15 K, 25000 kPa, Falling or rolling sphere viscometry | 70.4 mPa·s
303.15 K, 50000 kPa, Falling or rolling sphere viscometry | 94.7 mPa·s
303.15 K, 75000 kPa, Falling or rolling sphere viscometry | 126.3 mPa·s
307.84 K, 101.33 kPa, Vibrating wire viscometry | 43.69 mPa·s
308.15 K, 101.33 kPa, Concentric cylinders viscometry | 42.36 mPa·s
310.19 K, 101.33 kPa, Vibrating wire viscometry | 40.27 mPa·s
313.15 K, 101.33 kPa, Concentric cylinders viscometry | 35.01 mPa·s
313.15 K, 10000 kPa, Falling or rolling sphere viscometry | 40.1 mPa·s
313.15 K, 15000 kPa, Falling or rolling sphere viscometry | 42.3 mPa·s
313.15 K, 25000 kPa, Falling or rolling sphere viscometry | 47.2 mPa·s
313.15 K, 50000 kPa, Falling or rolling sphere viscometry | 61.7 mPa·s
313.15 K, 75000 kPa, Falling or rolling sphere viscometry | 80.5 mPa·s
313.15 K, 100000 kPa, Falling or rolling sphere viscometry | 104.9 mPa·s
318.15 K, 101.33 kPa, Concentric cylinders viscometry | 29.01 mPa·s
323.15 K, 101.33 kPa, Concentric cylinders viscometry | 24.47 mPa·s
323.15 K, 10000 kPa, Falling or rolling sphere viscometry | 27.2 mPa·s
323.15 K, 15000 kPa, Falling or rolling sphere viscometry | 28.7 mPa·s
323.15 K, 25000 kPa, Falling or rolling sphere viscometry | 32 mPa·s
323.15 K, 50000 kPa, Falling or rolling sphere viscometry | 41.6 mPa·s
323.15 K, 75000 kPa, Falling or rolling sphere viscometry | 53.5 mPa·s
323.15 K, 100000 kPa, Falling or rolling sphere viscometry | 68.5 mPa·s
328.15 K, 101.33 kPa, Concentric cylinders viscometry | 20.87 mPa·s
333.15 K, 101.33 kPa, Concentric cylinders viscometry | 17.97 mPa·s
333.15 K, 10000 kPa, Falling or rolling sphere viscometry | 20 mPa·s
333.15 K, 15000 kPa, Falling or rolling sphere viscometry | 20.8 mPa·s
333.15 K, 25000 kPa, Falling or rolling sphere viscometry | 22.8 mPa·s
333.15 K, 50000 kPa, Falling or rolling sphere viscometry | 29.2 mPa·s
333.15 K, 75000 kPa, Falling or rolling sphere viscometry | 37.2 mPa·s
333.15 K, 100000 kPa, Falling or rolling sphere viscometry | 46.3 mPa·s
338.15 K, 101.33 kPa, Concentric cylinders viscometry | 15.61 mPa·s
343.15 K, 101.33 kPa, Concentric cylinders viscometry | 13.68 mPa·s
343.15 K, 10000 kPa, Falling or rolling sphere viscometry | 14.8 mPa·s
343.15 K, 15000 kPa, Falling or rolling sphere viscometry | 15.7 mPa·s
343.15 K, 25000 kPa, Falling or rolling sphere viscometry | 17.4 mPa·s
343.15 K, 50000 kPa, Falling or rolling sphere viscometry | 21.7 mPa·s
343.15 K, 75000 kPa, Falling or rolling sphere viscometry | 26.7 mPa·s
343.15 K, 100000 kPa, Falling or rolling sphere viscometry | 33.2 mPa·s
348.15 K, 101.33 kPa, Concentric cylinders viscometry | 12.07 mPa·s
353.15 K, 101.33 kPa, Concentric cylinders viscometry | 10.78 mPa·s
353.15 K, 10000 kPa, Falling or rolling sphere viscometry | 11.5 mPa·s
353.15 K, 15000 kPa, Falling or rolling sphere viscometry | 12.1 mPa·s
353.15 K, 25000 kPa, Falling or rolling sphere viscometry | 13.2 mPa·s
353.15 K, 50000 kPa, Falling or rolling sphere viscometry | 16.4 mPa·s
353.15 K, 75000 kPa, Falling or rolling sphere viscometry | 20.2 mPa·s
353.15 K, 100000 kPa, Falling or rolling sphere viscometry | 24.8 mPa·s
358.15 K, 101.33 kPa, Concentric cylinders viscometry | 9.59 mPa·s
363.15 K, 101.33 kPa, Concentric cylinders viscometry | 8.63 mPa·s
368.15 K, 101.33 kPa, Concentric cylinders viscometry | 7.8 mPa·s
373.15 K, 101.33 kPa, Concentric cylinders viscometry | 7.09 mPa·s

101.33 kPa
Details | mass density [kg/m3]
278.15 K | 1431.3
283.15 K | 1426.4
288.15 K | 1421.6
293.15 K | 1416.9
298.15 K | 1412.3
303.15 K | 1407.8
308.15 K | 1403.2
313.15 K | 1398.7
318.15 K | 1394.3
323.15 K | 1389.8
328.15 K | 1385.4
333.15 K | 1380.9
338.15 K | 1376.4
343.15 K | 1372
348.15 K | 1367.5
353.15 K | 1362.9
358.15 K | 1358.3
363.15 K | 1353.9
368.15 K | 1349.6
373.15 K | 1345.4

CCOS(=O)(=O)[O-].CCn1cc[n+](C)c1 [1-ethyl-3-methylimidazolium ethyl sulfate]
101.33 kPa
Details | viscosity
278.15 K, Concentric cylinders viscometry | 329 mPa·s
283.15 K, Concentric cylinders viscometry | 234.5 mPa·s
288.15 K, Concentric cylinders viscometry | 172.2 mPa·s
293.15 K, Concentric cylinders viscometry | 130.1 mPa·s
298.15 K, Concentric cylinders viscometry | 100 mPa·s
298.52 K, Vibrating wire viscometry | 97.32 mPa·s and 98.21 mPa·s
303.15 K, Concentric cylinders viscometry | 78.66 mPa·s
303.34 K, Vibrating wire viscometry | 76.57 mPa·s
303.38 K, Vibrating wire viscometry | 76.99 mPa·s
303.64 K, Vibrating wire viscometry | 76.57 mPa·s
308.15 K, Concentric cylinders viscometry | 62.99 mPa·s
308.21 K, Vibrating wire viscometry | 61.5 mPa·s
313.15 K, Concentric cylinders viscometry | 51.59 mPa·s
313.23 K, Vibrating wire viscometry | 51.09 mPa·s
313.24 K, Vibrating wire viscometry | 50.47 mPa·s
318.15 K, Concentric cylinders viscometry | 42.36 mPa·s
318.43 K, Vibrating wire viscometry | 41.55 mPa·s
322.6 K, Vibrating wire viscometry | 36.51 mPa·s
323.02 K, Vibrating wire viscometry | 35.9 mPa·s
323.15 K, Concentric cylinders viscometry | 35.43 mPa·s
328.15 K, Concentric cylinders viscometry | 29.98 mPa·s
333.15 K, Concentric cylinders viscometry | 25.64 mPa·s
338.15 K, Concentric cylinders viscometry | 22.13 mPa·s
343.15 K, Concentric cylinders viscometry | 19.27 mPa·s
348.15 K, Concentric cylinders viscometry | 16.91 mPa·s
353.15 K, Concentric cylinders viscometry | 15.03 mPa·s
358.15 K, Concentric cylinders viscometry | 13.3 mPa·s
363.15 K, Concentric cylinders viscometry | 11.9 mPa·s
368.15 K, Concentric cylinders viscometry | 10.71 mPa·s
373.15 K, Concentric cylinders viscometry | 9.69 mPa·s

101.33 kPa
Details | mass density [kg/m3]
278.15 K | 1251.2
283.15 K | 1247.3
288.15 K | 1243.7
293.15 K | 1240.1
298.15 K | 1236.7
303.15 K | 1233.3
308.15 K | 1229.9
313.15 K | 1226.5
318.15 K | 1223.2
323.15 K | 1219.9
328.15 K | 1216.6
333.15 K | 1213.4
338.15 K | 1210.2
343.15 K | 1206.9
348.15 K | 1203.6
353.15 K | 1200.1
358.15 K | 1196.6
363.15 K | 1193.4
368.15 K | 1190.5
373.15 K | 1187.4
